The values below come from patent US20140296223A1, “METHOD FOR REGULATING SKIN PIGMENTATION” (THE GENERAL HOSPITAL CORPORATION, priority 2011, published 2014).

In series [1] the test system is Microphthalmia Transcription Factor (MITF). The series is described as follows: TRPM1-luciferase reporter screen for MITF antagonists in Skme15 melanoma cells. It counts as cell-based, human. As to conditions: for IC50: IC50 (described formally as qAC50), half-maximal suppression dose, unit inferred, text says potencies around 1 uM; for Conc. At Maximal Activity / Maximal Activity: dose titration; for Conc. At Maximal Activity: unit not given, in M (unit assumed); for Maximal Activity: maximal suppression of TRPM1-luciferase at any dose; for Z-Score: screen, suppression of TRPM1-luciferase activity, Skme15 cells. The source says:
In order to carry out a successful MITF antagonist screen, the inventors utilized a TRPM1-luciferase reporter. […] Therefore, the TRPM1-luciferase reporter stably integrated into melanoma cells is effective for the screening assay. The use of melanoma cells, while less perfectly relevant than primary human melanocytes, afforded the advantages of speed and reproducibility for the screen.
In order to engineer a screen which broadly suppress MITF activity either by suppression of MITF expression or by inhibition of MITF activity, the inventors utilized a luciferase reporter containing the promoter of a strong direct transcriptional target of MITF, i.e., TRPM1 gene, the inventors have identified the active ingredients having the ability of inhibiting the expression or activation of Microphthalmia Transcription Factor (MITF) for medical or esthetic benefit. The inventors have previously identified the TRPM1 gene (also called “Melastatin”) as a direct target of MITF, which contains numerous MITF binding sites, and which directly responds in potent fashion to MITF overexpression (Miller A J, Du J, Rowan S, Hershey C L, Widlund H R, Fisher D E: Transcriptional regulation of the melanoma prognostic marker melastatin (TRPM1) by MITF in melanocytes and melanoma, Cancer Res 2004, 64:509-516). TRPM1 expression also correlates closely to MITF expression within human melanoma cell lines, as well as in clinical pigmented lesions (nevi and melanomas).
The TRPM1 promoter was ligated to the luciferase gene and inserted into a retroviral vector as well as a lentiviral vector. The lentiviral vector was used to infect primary human melanocytes, which then was subjected to a primary screen using the Broad Chemical Genetics core screening facility, and its natural products/extracts libraries. As backup, the retroviral vector was used to stably integrate into the genome of melanoma cells, which can be used for the identical small molecule screen. Screen optimization was carried out using forskolin and MSH as positive control small molecules (which upregulate cAMP and MITF expression (D'Orazio J A, Nobuhisa T, Cui R, Arya M, Spry M, Wakamatsu K, Igras V, Kunisada T, Granter S R, Nishimura E K, Ito S, Fisher D E: Topical drug rescue strategy and skin protection based on the role of Mc1r in UV-induced tanning, Nature 2006, 443:340-344)). Small molecules which suppress MSH induced TRPM1-luciferase without altering cell numbers or viability, represent initial “hits” in this screen. Negative control includes a constitutive luciferase vector within the same cells (eg driven by a constitutive promoter such as thymidine kinase promoter), to control for nonspecific inhibitors of basal transcriptional machinery-something which would otherwise be assessed in detail during secondary/tertiary analyses of candidate hits.
The human melanoma cell line Skme15 was utilized due to the advantageous growth properties as well as the inventors' prior experience that Skme15 expresses a typical level of MITF protein. […] Therefore, an integrated TRPM1-luciferase reporter was generated, and the subsequent cells were cloned twice (serially) to assure purity of the reporter cell population. Cells were maintained in drug selection to assure maintenance of the luciferase reporter (when drug was omitted, eventual loss of the luciferase signal was observed). Following re-cloning, distinct isolates were selected for further use on the basis of clonogenic growth on 384 well plates, as required for the small molecule screen. A positive control for suppression of TRPM1-luciferase signal utilized: a lentivirus encoding shRNA against MITF. […] The day-to-day variability in plating efficiency was analyzed, and found very high reproducibility in the line which was selected for further use in the screen.
The screen was carried out with a library from the Broad Institute comprising a mixture of natural products, known bioactives, and additional compounds (a total of about 13,000 compounds). […]

The test system of another series is Skme15. As to the kind of experiment: Toxicity with fluorescence viability probe (CellTiter-Fluo Cell Viability Assay). Format: cell-based, human. As to conditions: composite of the variation between drug-treated and control divided by the standard error. Here is the method: Although the shape of the dose-response can vary among hits, the inventors chose to include all candidates which produce dose-dependent effects. The fourth criterion which was determined is the IC50 (described formally as qAC50) which represents the half-maximal suppression dose. Most of the candidate hits resided in the high nanomolar to low micromolar range by this criterion (all of these validation data are listed in Table 1). The fifth criterion was maximal suppression (at any dose), which represented the magnitude of suppression which was attainable regardless of the dose required to achieve it. […] The sixth criterion to be determined is the Log P partition coefficient, which is a predictor of lipophilicity. For this, the inventors have used the method of Ghose and Crippen to calculate the predicted octanol-water partition coefficient (J. Comp. Chem. 9, 80(1988)). While this is only an estimate of potential skin penetration, the analysis was carried out because it helps in prioritizing likelihood of topical effectiveness, in theory. The seventh criterion was an analysis of toxicity utilizing a fluorescence viability probe (CellTiter-Fluo™ Cell Viability Assay (Promega)). Interpretation of this endpoint is complicated by the fact that it represents a composite of the variation between drug-treated and control divided by the standard error The results shown in Table 1 indicate 34 candidate molecules which satisfied all of the criteria outlined above. […] Most of their potencies ranged slightly below or above 1 uM. While the lipophilicity scores remain imperfect predictors of skin penetration capability. However, numbers of >3 can be more likely to penetrate.

A word on the IC50: it is the concentration at which inhibition is half-maximal. As for `Cc1ccc(C23C[C@@H]4C[C@@H](CC(CN)(C4)C2)C3)cc1C` [1-[(1S,3R,5R,7S)-3-(3,4-dimethylphenyl)adamantan-1-yl]methanamine], in series [1], inhibition was half-maximal at 2.48 µM (IC50), the “Conc. At Maximal Activity” value worked out at 6.00E−06, the “Maximal Activity” value is given as −149 and the Z-Score was −10.8562. Moreover, the “Viability z-score (treated minus control, divided by standard error)” value with Skme15 is recorded as −1.015.

With `COc1ccc2c(c1)OC1COc3cc(OC)c(OC)cc3C1C2=O` (stereo not drawn) [2,3,9-trimethoxy-6a,12a-dihydrochromoeo[3,4-b]chromen-12(6H)-one], in series [1], the IC50 was 5.38 µM, the “Conc. At Maximal Activity” value came out at 1.20E−05, the “Maximal Activity” value is −320.4 and the Z-Score is given as −9.245. The “Viability z-score (treated minus control, divided by standard error)” value in the series on Skme15 is reported as −4.2731.

On to `COc1ccc([N+](=O)[O-])cc1NC(=O)COc1ccc(C(C)(C)C)cc1Br` [2-(2-bromo-4-tert-butylphenoxy)-N-(2-methoxy-5-nitrophenyl)acetamide], for which the Z-Score in series [1] is listed as −12.0562. Also, in the series with Skme15, the “Viability z-score (treated minus control, divided by standard error)” value is listed as −1.6406.

In series [1], `Cc1oc2c(c1C(=O)N1CCC(C)CC1)C(=O)c1ccccc1C2=O` [2-methyl-3-[(4-methylpiperidin-1-yl)carbonyl]naphtho[2,3-b]furan-4,9-dione] showed a Z-Score of −9.924. Moreover, the “Viability z-score (treated minus control, divided by standard error)” value in the series on Skme15 is given as 0.1575.

The molecule `O=C(O)CCSc1nc2ccccc2s1` [3-(1,3-benzothiazol-2-ylthio)propanoic acid] displayed a Z-Score in series [1] of −9.79. The “Viability z-score (treated minus control, divided by standard error)” value with Skme15 is −1.5092.

On to `O=C(O)c1cccc(COc2ccc(CO)cc2Cl)c1` [3-{[2-chloro-4-(hydroxymethyl)phenoxy]methyl}benzoic acid], for which the Z-Score in series [1] is recorded as −9.909. Further, the “Viability z-score (treated minus control, divided by standard error)” value in the series on Skme15 is on record as −1.5092.

With `COc1cc(CO)ccc1OCc1cccc(C(=O)O)c1` [3-{[4-(hydroxymethyl)-2-methoxyphenoxy]methyl}benzoic acid], the Z-Score in series [1] is listed as −10.9296. Further, the “Viability z-score (treated minus control, divided by standard error)” value in the series on Skme15 is −1.6406.

In series [1], `Cc1ccc(OCC(=O)Nc2cccc(C(=O)O)c2)c(Br)c1` [3-{[(2-bromo-4-methylphenoxy)acetyl]amino}benzoic acid] registered a Z-Score of −10.0837. Further, the “Viability z-score (treated minus control, divided by standard error)” value with Skme15 was −1.5092.

In series [1], `CCOc1ccc(OCC(=O)Nc2cccc(C(=O)O)c2)cc1` [3-{[(4-ethoxyphenoxy)acetyl]amino}benzoic acid] registered a Z-Score of −9.9. Besides, the “Viability z-score (treated minus control, divided by standard error)” value in the series on Skme15 is given as −1.5092.

Turning to `COc1cc(C(=O)Nc2cc(-c3nc4ncccc4o3)ccc2C)ccc1OCc1ccc(Cl)cc1` [4-[(4-chlorobenzyl)oxy]-3-methoxy-N-(2-methyl-5-[1,3]oxazolo[4,5-b]pyridin-2-ylphenyl)benzamide], the Z-Score in series [1] is −9.256.

For `Clc1ccc(C2=NN=C(N3CCCC3)SC2)cc1` [5-(4-chlorophenyl)-2-pyrrolidin-1-yl-6H-1,3,4-thiadiazine], the Z-Score in series [1] is given as −9.961. The “Viability z-score (treated minus control, divided by standard error)” value in the series with Skme15 is recorded as −0.2442.

Regarding `CC(C)(C)c1ccc(C(=O)N2CCN(c3ccc([N+](=O)[O-])c(NCc4cccnc4)c3)CC2)cc1` [5-[4-(4-tert-butylbenzoyl)piperazin-1-yl]-2-nitro-N-(pyridin-3-ylmethyl)aniline], in series [1], the Z-Score is −9.588. In the series with Skme15, the “Viability z-score (treated minus control, divided by standard error)” value is reported as −0.8893.

For the molecule `Cc1ccc(C)c(C(Nc2ccccn2)c2cc(Cl)c3cccnc3c2O)c1` (stereo not drawn) [5-chloro-7-[(2,5-dimethylphenyl)(pyridin-2-ylamino)methyl]quinolin-8-ol], in series [1], the Z-Score was −8.461. Further, the “Viability z-score (treated minus control, divided by standard error)” value with Skme15 was −0.8893.

In series [1], `Oc1c(C(Nc2ccccn2)c2c(F)cccc2Cl)cc(Cl)c2cccnc12` (stereo not drawn) [5-chloro-7-[(2-chloro-6-fluorophenyl)(pyridin-2-ylamino)methyl]quinolin-8-ol] showed a Z-Score of −9.327. Also, in the series with Skme15, the “Viability z-score (treated minus control, divided by standard error)” value was −2.226.

In turn, `c1ccc(-c2cnc3nonc3n2)cc1` [5-phenyl[1,2,5]oxadiazolo[3,4-b]pyrazine] registered a Z-Score in series [1] of −9.989. For the same molecule, the “Viability z-score (treated minus control, divided by standard error)” value in the series with Skme15 is given as −0.0206.

Consider `O=c1[nH]c(=O)n(Cc2ccco2)c2c1C(C(F)(F)F)(C(F)(F)F)N=C(c1ccc(F)cc1)N2` [7-(4-fluorophenyl)-1-(2-furylmethyl)-5,5-bis(trifluoromethyl)-5,8-dihydropyrimido[4,5-d]pyrimidine-2,4(1H,3H)-dione], for which, in series [1], the Z-Score is −8.791. In addition, in the series on Skme15, the “Viability z-score (treated minus control, divided by standard error)” value is −2.0352.

As to `CC(C)(C)[C@H]1CC[C@@]2(CC1)[C@@H](C#N)[C@]2(C#N)C(=O)c1ccccc1` [(1S,2R,3S,6S)-1-benzoyl-6-tert-butylspiro[2.5]octane-1,2-dicarbonitrile], in series [1], the IC50 came to 5.69 µM, the “Conc. At Maximal Activity” value amounted to 1.95E−05, the “Maximal Activity” value is given as −274.1 and the Z-Score is −11.0899. For the same molecule, in the series on Skme15, the “Viability z-score (treated minus control, divided by standard error)” value was 0.4824.

On to `CCOC(=O)c1c(C)n(Cc2ccccc2)c2ccc(OCC(O)CNC(C)(C)C)cc12` (stereo not drawn) [Ethyl-1-benzyl-5-[3-(tert-butylamino)-2-hydroxypropoxy]-2-methyl-1H-indole-3-carboxylate], for which the Z-Score in series [1] was −7.844. Moreover, the “Viability z-score (treated minus control, divided by standard error)” value in the series with Skme15 is given as −2.519.

`CCOC(=O)COc1cccc(-c2nc3ccccc3s2)c1` [Ethyl-[3-(1,3-benzothiazol-2-yl)phenoxy]acetate] showed a Z-Score in series [1] of −9.663. In addition, in the series with Skme15, the “Viability z-score (treated minus control, divided by standard error)” value was −0.0206.

The molecule `Cc1cccc(-c2nnc(SCC(=O)Nc3ccccc3F)o2)c1` [N-(2-fluorophenyl)-2-{[5-(3-methylphenyl)-1,3,4-oxadiazol-2-yl]thio}acetamide] had a Z-Score in series [1] of −10.7661. In addition, in the series with Skme15, the “Viability z-score (treated minus control, divided by standard error)” value was −0.0206.

`O=C(NCCCc1ccccc1)N1c2ccccc2Sc2ccccc21` [N-(3-phenylpropyl)-10H-phenothiazine-10-carboxamide]: the Z-Score in series [1] is −9.495. Besides, in the series on Skme15, the “Viability z-score (treated minus control, divided by standard error)” value is recorded as −4.128.

In turn, `O=C(CSc1nc2cc([N+](=O)[O-])ccc2[nH]1)Nc1cc(C(F)(F)F)cc(C(F)(F)F)c1` [N-[3,5-bis(trifluoromethyl)phenyl]-2-[(5-nitro-1H-benzimidazol-2-yl)thio]acetamide] came in with a Z-Score in series [1] of −10.0284.
